Measurements: US9006221B2, “Method of modulating ship activity” (H. Lee Moffitt Cancer Center and Reserach Institute, Inc., priority 2008, dated 2015)

Target: T1, SHIP2 (Homo sapiens, UniProt O15357)
T1 sequence (O15357 1-1258): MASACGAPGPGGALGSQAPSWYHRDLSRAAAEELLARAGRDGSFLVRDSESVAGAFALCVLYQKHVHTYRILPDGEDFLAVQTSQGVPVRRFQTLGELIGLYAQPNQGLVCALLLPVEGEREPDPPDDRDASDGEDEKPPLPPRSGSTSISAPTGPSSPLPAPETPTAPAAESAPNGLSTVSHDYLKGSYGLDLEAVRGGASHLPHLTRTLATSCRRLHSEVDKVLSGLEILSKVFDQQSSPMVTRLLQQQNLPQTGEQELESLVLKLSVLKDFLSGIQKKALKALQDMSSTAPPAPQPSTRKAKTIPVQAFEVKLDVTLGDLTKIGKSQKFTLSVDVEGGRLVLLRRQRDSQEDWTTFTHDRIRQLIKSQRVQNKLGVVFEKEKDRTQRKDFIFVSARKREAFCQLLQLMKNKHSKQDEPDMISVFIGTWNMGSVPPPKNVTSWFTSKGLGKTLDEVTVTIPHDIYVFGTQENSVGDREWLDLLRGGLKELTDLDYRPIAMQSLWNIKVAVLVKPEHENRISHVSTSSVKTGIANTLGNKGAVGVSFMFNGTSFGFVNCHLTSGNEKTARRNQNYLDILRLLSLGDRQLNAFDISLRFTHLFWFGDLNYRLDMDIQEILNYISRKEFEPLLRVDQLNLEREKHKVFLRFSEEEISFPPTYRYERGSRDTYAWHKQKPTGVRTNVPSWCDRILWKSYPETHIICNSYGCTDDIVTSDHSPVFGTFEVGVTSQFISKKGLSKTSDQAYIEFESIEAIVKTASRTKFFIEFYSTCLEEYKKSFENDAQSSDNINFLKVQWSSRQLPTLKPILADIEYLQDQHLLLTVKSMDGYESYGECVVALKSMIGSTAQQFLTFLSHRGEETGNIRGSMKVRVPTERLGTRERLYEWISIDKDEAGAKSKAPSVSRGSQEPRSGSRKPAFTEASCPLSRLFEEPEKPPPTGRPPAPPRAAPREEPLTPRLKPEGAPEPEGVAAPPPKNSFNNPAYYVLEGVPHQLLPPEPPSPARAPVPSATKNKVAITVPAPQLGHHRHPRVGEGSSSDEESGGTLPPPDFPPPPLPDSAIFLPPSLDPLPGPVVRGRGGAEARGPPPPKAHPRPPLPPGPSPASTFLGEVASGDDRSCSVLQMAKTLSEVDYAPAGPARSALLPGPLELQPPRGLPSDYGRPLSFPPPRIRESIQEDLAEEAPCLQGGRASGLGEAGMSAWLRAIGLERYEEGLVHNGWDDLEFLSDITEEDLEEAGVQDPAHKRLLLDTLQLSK
Test: FP assay of SHIP2 enzymatic activity
Type: biochemical
Excerpt: No Compound—FP assay conducted with purified SHIP1 or SHIP2 as indicated in the absence of inhibitor. No Enzyme—FP assay conducted in SHIP buffer and fluorescent substrate in the absence of enzyme.
Thus far, none of the inhibitors have been identified as selective for SHIP1 over SHIP2. The majority of SHIP inhibitors identified show selectivity for 5′ inositol phosphatases and thus might be used to target SHIP1 or SHIP2 activity.
Assay of SHIP1 enzymatic activity: A fluorescent polarization (FP) assay that detects the 5′-inositol phosphatase activity of SHIP1 was developed based on a previously established protocol [Drees B E, et al., Comb Chem High Throughput Screen (2003) 6(4):321-330] and was obtained from Echelon Biosciences (Salt Lake City, USA). Modifications of the protocol included the application of SHIP1 in the assay and an increase in the concentration of MgCl2 to […] to maximize the activity of SHIP1 in this assay. Each enzymatic reaction was performed in a 96 well working plate and added in the following order and concentration: Recombinant SHIP1 (0.1 μg) in PBS+20 mM MgCl2, 100 μM of each individual compound from the NCI Diversity Set and then PI(3,4,5)P3 substrate diluted 1:10 in H2O. The enzymatic reaction was incubated for 30 min at room temperature. The detector, reaction mixture and probe were then combined according to the SHIP2 protocol. […]

| SMILES | inhibition of SHIP2 enzymatic activity |
| --- | --- |
| OC(c1cc(-c2ccccc2)nc2c1ccc1ccccc12)C1CCCCN1 (centres unmarked) [NSC13480, (2-phenylbenzo[h]quinolin-4-yl)-piperidin-2-ylmethanol] | inhibit both SHIP1 and SHIP2 enzymatic activity |
| CC(C)CCC[C@@H](C)[C@H]1CC[C@H]2[C@@H]3CC[C@H]4C[C@H](N)CC[C@]4(C)[C@H]3CC[C@]12C [NSC23922, (3R,5S,8R,9S,10S,13R,14S,17R)-10,13-dimethyl-17-[(2R)-6-methylheptan-2-yl]-2,3,4,5,6,7,8,9,11,12,14,15,16,17-tetradecahydro-1H-cyclopenta[a]phenanthren-3-amine] | inhibit both SHIP1 and SHIP2 enzymatic activity |
